The values that follow come from patent US5387710A, “Ethanolamine derivatives having sympathomimetic and anti-pollakiuria activities” (Fujisawa Pharmaceutical Co., Ltd., priority 1992, dated 1995).

Counter-ions that a name gives are not always drawn.

Assay [1] deals with isolated rat distal colon. Kind of assay: Effect on isolated rat distal colon (spontaneous contractions, organ bath). Format: cell-based. The settings on record: 0.5 h, isolated distal colon strip of male SD rats, Tyrode solution 37° C., observed over 30 minutes. How it is done: Effect on isolated rat distal colon:
Male SD rats (180~230 g) were used. Animals were fasted for 24 hours prior to experiment. Distal colon was removed immediately after sacrifice and placed in an organ bath containing 25 ml Tyrode solution aerating with 95% O2, 5% CO2 at 37° C. The strip was mounted under 0.5 g tension and spontaneous contractions were recorded isometrically. After the mobility was of a uniform size, test compound was added to an organ bath and the contractions were observed over a 30 minutes period. Effect of test compound was calculated by comparing contractions before and after test compound.

Assay [2] relates to isolated non-pregnant rat uterus. Briefly: Effect on isolated non-pregnant rat uterus (spontaneous contractions, organ bath). Format: cell-based. The settings on record: 20 min, isolated uterine horn strip of estradiol-treated female SD rats, Locke solution 37° C., observed over 20 minutes. Here is the method:
Effect on isolated non-pregnant rat uterus:
Female SD rats (150~180 g) were used. 48 and 24 hours prior to use, rats were given estradiol (ovahormon benzoat: Trademark, Teikoku Hormone Mfg. Co., Ltd.) subcutaneously at a dose of 40 μg/rat to induce oestrus. The animals were killed and uterine horns were removed. Each strip was placed in an organ bath containing 25 ml Locke solution aerating with 95% O2, 5% CO2 at 37° C. under 1 g tension. Contractions were recorded isometrically. After the spontaneous contractions were of a uniform size, test compound was added to organ bath. The motility was observed over a 20 minutes period. Effect of test compound was calculated by comparing contractions before and after test compound.

`CCOC(=O)COc1ccc2c(c1)CC(NC[C@H](O)c1cccc(Cl)c1)CCC2` (mixture of isomers) [Example 1, (1R,6'R)- and (1R,6'S)-2-[(3-ethoxycarbonyl-methoxy-6,7,8,9-tetrahydro-5H-benzocyclohepten-6-yl)amino]-1-(3-chlorophenyl)ethanol hydrochloride]: the 50% inhibitory concentration (IC50) (in general, the point on the concentration scale where inhibition reaches its midpoint) in assay [1] stood at 0.68 nM; in assay [2], 200 nM.
The like results for `CCOC(=O)COc1ccc2c(c1)C[C@@H](NC[C@H](O)c1cccc(Cl)c1)CCC2` [2-3), (1R,6'S)-2-[(3-Ethoxycarbonylmethoxy-6,7,8,9-tetrahydro-5H-benzocyclohepten-6-yl)amino]-1-(3-chlorophenyl)ethanol hydrochloride] were, in that order, 0.84 nM and 440 nM.
For `CCOC(=O)COc1ccc2c(c1)C[C@H](NC[C@H](O)c1cccc(Cl)c1)CCC2` [3-2), (1R,6'R)-2-[(3-Ethoxycarbonylmethoxy-6,7,8,9-tetrahydro-5H-benzocyclohepten-6-yl)amino]-1-(3-chlorophenyl)ethanol], the IC50 in assay [1] turned out to be 0.66 nM; in assay [2] it was 240 nM.
